Test results reported in patent US20260098072A1, “METHODS OF STIMULATING APPETITE AND/OR INCREASING BODY WEIGHT USING NON-NATURALLY OCCURRING MELANOCORTIN RECEPTOR ANTAGONIST ANALOGS” (Endevica Bio, Inc., priority 2022, published 2026).
“And” between values parts separate entries of the source, which are not always exact repeats. Identical values can stand only once. “Also recorded” adds a separate entry of the source. Positions of bridges follow the written chain, without caps; N, C: chain ends. Non-standard residues stand in square brackets, D forms with d. Residues, ends and D or L forms follow the SMILES beside them. No end group written: not given here. d2Nal = N[C@H](Cc1ccc2ccccc2c1)C(=O)O; Nle = CCCC[C@H](N)C(=O)O

What was measured:
[1] = system: LPS model of cachexia; experiment: LPS-induced cachexia assay in rats; assay type: in vivo, rat; conditions: for peripheral (IP) anti-cachexia activity / blood-brain barrier transport: peripheral administration
Description: The LPS model uses rats were maintained on a 12 h light/dark schedule with ad libitum access to food and water. Animals were handled daily for a minimum of three consecutive days to decrease non-specific handling stress. On the day of the experiment, individually housed animals received intraperitoneal injections of LPS dissolved in 0.5% low-endotoxin BSA, 0.9% saline or 0.5% BSA in 0.9% saline alone, and were returned to their home cage. The drug or control was administered (ICV, IP, or PO, depending on the type of study) 1-hour after LPS injection.
In the experiments performed in accordance with the present technology, a series of melanocortin receptor antagonist peptides were examined in a bacterial endotoxin inducing cachexia assay. For this assay, a rat is challenged with a single peripheral injection of lipopolysaccharide (LPS). LPS is a heat-stable lipo-polysaccharide, the major component of the outer membrane (capsule) of gram negative bacteria. In non-capsulated strains, it appears as a cell surface protein. LPS produces a strong immune response, including secretion of the proinflammatory cytokines Tumor Necrosis Factor α (TNFα) and interleukin-1 (IL-1). Proinflammatory cytokines are known factors that induce cachexia.
Rats are maintained on a 12-hour light/dark cycle. Animals are handled daily for a minimum of 5 consecutive days to acclimate them to the handling required for the experiment. […] On the day of the experiment, individually housed animals receive intraperitoneal (IP) injections of LPS dissolved in 0.5% low-endotoxin BSA, 0.9% saline or 0.5% BSA in 0.9% saline alone, and returned in their home cage. Melanocortin receptor antagonist peptides were administered (IP or by gavage, depending on the type of study) one hour after the LPS injection. The extent of cachexia is measured by the reduction in food intake, measured every two hours. The cachexia typically lasts only a single day. However, rats lose up to 5% of their body weight during a 12-hour light cycle, making up this loss plus food needed for normal growth during the 12-hour dark cycle. Thus, failure to eat appropriately during a single dark cycle is determinable from the animal's weight and any changes thereof.
A series of melanocortin receptor antagonist peptides were examined in a bacterial toxin inducing cachexia assay. In this assay, a rat was challenged with a single peripheral injection of lipopolysaccharide (LPS), a bacterial toxin that rapidly induces acute cachexia. The extent of cachexia was measured as a reduction in food intake, measured every two hours. The cachexia typically lasts only a single day.

[2] = system: Lewis sarcoma rat; experiment: Reversal of cachexia-induced lethargy; assay type: in vivo; conditions: once-daily peripheral dosing for 48 hours (2 IP doses)
Source text: In animals and humans, cachexia produces “lethargy,” i.e., the aversion to activity. Grossberg et al., J. Neurosci. 31 (31): 11376-11386. […] This therapeutic effect is dependent on a stabilized non-naturally occurring melanocortin analog C-terminal extension. Video recordings characterized control animal behavior as neo-exploratory movement about the cage, i.e., repeated “sniffing” the air to presumably sample odors (e.g., neighboring animals), grooming, and intermittent bouts of eating and drinking. Caldecott-Hazard et al., J. Neurosci. 8 (6): 1951-1961 (1988).
The animal typically remains in one position for an extended period of time (>1 minute). Occasionally it will change position, assuming the new position for an extended period. The rats show no grooming behavior, evident in the appearance of their coat and eyes.

[3] = system: Lewis sarcoma rat model; conditions: previously published results; cited from earlier work
[4] = Phase 1 clinical trial (NCT05529849), safety; assay type: in vivo, human; conditions: 5 SAD and 3 MAD cohorts
Source text: Safety results of the single center, inpatient, double-blind, randomized, sequential assessment of 5 SAD (1a-5a) and 3 MAD (1b-3) cohorts dosed over 5 days TCMCB07 Phase 1 Clinical Trial (NCT05529849) have been summarized in FIG. 25. The entirety of the TCMCB07 Phase 1 Clinical Trial (NCT05529849) is incorporated herein by reference.

[5] = target: T1, human MC3R (Homo sapiens, UniProt P41968); experiment: cAMP accumulation assay (HTRF), antagonist activity at MC3R; assay type: cell-based; conditions: for Emax / IC50: HEK293/CRE-luc/MC3R; for Emax: 0.1 nM to 1,000 nM, read-out: Max Activation %; for IC50: estimated from dose-response curve
T1 construct: expressed in transfected cells; host or cells: HEK293/CRE-luc/MC3R
T1 sequence (P41968 whole entry): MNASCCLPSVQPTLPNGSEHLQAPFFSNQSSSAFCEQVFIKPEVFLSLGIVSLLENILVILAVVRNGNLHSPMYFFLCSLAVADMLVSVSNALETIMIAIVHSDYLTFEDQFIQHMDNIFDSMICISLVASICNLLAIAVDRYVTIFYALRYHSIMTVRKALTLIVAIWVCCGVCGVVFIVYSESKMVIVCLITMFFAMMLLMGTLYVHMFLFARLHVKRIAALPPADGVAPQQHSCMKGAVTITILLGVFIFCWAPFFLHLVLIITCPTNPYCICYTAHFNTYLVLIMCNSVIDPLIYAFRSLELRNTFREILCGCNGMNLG
Description: (§1) The antagonist activity of exemplary non-naturally occurring melanocortin analogs (SEQ ID NOs: 3, 4, 6, 9-11, 14, 15, and 291-309) at the melanocortin 3 receptor (MC3R) and melanocortin 4 (MC4R) receptor was measured via cAMP accumulation assay, according to the following procedure.
(§2) Recombinant cell lines shown in Table 1 were stimulated with melanocortin receptor antagonists and evaluated for cyclic adenosine monophosphate (cAMP) levels as a measurement of receptor activation. cAMP levels were quantified using Homogeneous Time-Resolved Fluorescence (HTRF). The stimulation and CAMP measurement were performed sequentially. First, the compound stimulated the G-protein coupled receptor (GPCR) which then induced downstream signaling, which was measured soon after. Cell lines and stimulated receptors used are detailed in Table 1.
(§3) Twenty-seven exemplary synthetic peptides were tested for antagonist activity at the human MC3R and MC4R at concentrations ranging from 0.1 nM to 1,000 nM. After stimulation, the level of cyclic adenosine monophosphate (CAMP) in each well was quantified via Homogenous Time-Resolved Fluorescence (HTRF) as a measurement of receptor activity. Dose-response curves and estimated IC50 values were then obtained for each antagonist peptide against the MC3R and MC4R. HS024 (TFA) and was used as a positive control for the antagonist activity of MC3R (FIG. 1A) and MC4R (FIG. 1B).

[6] = target: T2, human MC4R (Homo sapiens, UniProt P32245); experiment: cAMP accumulation assay (HTRF), antagonist activity at MC4R; assay type: cell-based; conditions: for Emax: HEK293, HEK293/MC4R/CRE-GFP, 0.1 nM to 1,000 nM, read-out: Max Activation %; for IC50: HEK293/MC4R/CRE-GFP, estimated from dose-response curve
T2 construct: expressed in transfected cells; host or cells: HEK293/MC4R/CRE-GFP
T2 sequence (P32245 whole entry): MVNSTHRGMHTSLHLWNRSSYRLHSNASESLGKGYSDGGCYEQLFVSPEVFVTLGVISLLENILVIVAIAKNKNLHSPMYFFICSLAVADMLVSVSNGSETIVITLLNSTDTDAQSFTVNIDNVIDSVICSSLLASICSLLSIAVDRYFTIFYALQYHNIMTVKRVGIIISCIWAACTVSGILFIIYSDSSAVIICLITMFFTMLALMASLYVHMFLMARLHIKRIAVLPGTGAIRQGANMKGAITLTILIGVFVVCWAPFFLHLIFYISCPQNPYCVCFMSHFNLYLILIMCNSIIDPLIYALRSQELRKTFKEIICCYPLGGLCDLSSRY
Description: as §1, §2, §3

[7] = TCMCB07 in plasma and cerebrospinal fluid after IV administration (blood-brain barrier transport); assay type: in vivo, rat
Description: Urethane-anesthetized rats had polyethylene (PE)-tubing cannulas placed in their femoral artery and vein. Each rat was then placed in a small animal stereotaxic apparatus, their head fixed in the lateral plane with ear bars, and their head placed in a 45-50° downward angle by placing their nose below an adjustable tooth bar. This position placed the animal's cistern magna at the highest vertical position of its body. The dural covering of the dorsal cistern magna was exposed.
A stainless steel cannula, with one end attached to PE-tubing, was placed in a stereotaxic tower cannula holder (open end down). The free end of the PE-tubing was attached to a 100 µL gas-tight Hamilton syringe with a 28-gauge needle. The cannula was adjusted to a position that approximated the middle of the exposed cistern magna, and the cannula lowered until it touched the dura mater. […] The dura has a degree of flexibility such that the cannula can depress it before it pierces it. […]
For the experimental procedure, baseline samples of blood and CSF were taken (“O” time points), followed by the IV administration of 750 nmol/kg TCMCB07. […] Both CSF and plasma were stored at −80° C. until analyzed by (HPLC) with spectrofluoremetric monitoring at 230 nm excitation and […] (the fluorescence maximum for the Nal residue). […]

[8] = system: Lewis sarcoma rat model; experiment: Lewis sarcoma rat model of cancer cachexia; assay type: in vivo; conditions: 2 nmol once per day
Description: This sarcoma is an aggressive form of cancer that produces significant cachexia. Popp et al., Cancer 49 (6): 1212-1220 (1982). In the protocol, “treatment” began 8-days after tumor implantation, with a significant decrease in food intake from baseline. Body composition was determined by NMR prior to tumor implantation, and on the final day of the experiment after tumor resection, by ECHO MRI (NMR). Tumor implantation produces cachexia on or about the sixth day. The non-naturally occurring melanocortin analog or saline was administered after day 8 and continued through day 12.

[9] = system: urethane-anesthetized rats; conditions: rat, in vivo
Description: These studies were performed in urethane-anesthetized rats, since anesthesia is required for six-lead ECG monitoring. […] Initial selection of doses was guided by FDA exploratory IND studies with a recommendation for at least a 100-fold excess of the human dose.

Compound: Ac-Nle-c[Asp-Pro-DNal(2′)-Arg-Trp-Lys]-β^3Pro-β^2Val-NH2 [TCMCB05]
- food intake and body weight, 24-hours ([1]; 0.2 mg/kg intraperitoneally): had stimulated appetites and gained weight
- anti-cachectic activity after ICV administration [1]: molar activity equivalent to TCMCB02
- molar activity relative to TCMCB02 ([1]; ICV-administration): 10 fold
- peripheral (IP) anti-cachexia activity / blood-brain barrier transport [1]: had IP anti-cachexia activity; also recorded: had peripheral anti-cachexia activity
- behavior (lethargy) [2]: restored “normal” behavior to rats

Compound: AGRP: natural melanocortin system inhibitor; naturally occurring melanocortin antagonist protein (SSRRCVRLHESCLGQQVPCCDPCATCYCRFFNAFCYCRKLGTAMNPCSRT; ends and bridges not checked; cysteine pairing not given here; UniProt O00253 83-132, looked up)
- reversal of feeding / cachexia-anorexia syndrome in cachexia models [3]: 100%

Compound: CCCC[C@H](NC(C)=O)C(=O)N[C@H]1CC(=O)NCCCC[C@@H](C(=O)N[C@@H](C(=O)N2CCC[C@@H]2C(N)=O)C(C)C)NC(=O)[C@H](Cc2c[nH]c3ccccc23)NC(=O)[C@H](CCCN=C(N)N)NC(=O)[C@@H](Cc2ccc3ccccc3c2)NC(=O)[C@@H]2CCCN2C1=O [TCMCB07, Ac-Nle-c[Asp-Pro-dNal(2′)-Arg-Trp-Lys]-dVal-dPro-NH2] (Ac-[Nle]DP[d2Nal]RWK[dV][dP]-NH2; lactam 2-7)
- CAEs [4]: zero
- clinically relevant abnormal laboratory test results [4]: zero
- clinically relevant abnormal physical exams [4]: zero
- drug-related SAEs [4]: zero
- patients having abnormal ECGs [4]: zero
- Emax [5]: 112%
- IC50 [5]: < 10 µM and 0.0434 µM
- Emax [6]: 118%
- IC50 [6]: < 10 µM and 0.0269 µM
- presence in CSF / transport through the blood-brain-barrier ([7]; IV 750 nmol/kg, HPLC effluent by mass spectrometry): confirmed the presence of TCMCB07 in CSF; also recorded: direct physical evidence of TCMCB07 transport through the blood-brain-barrier
- level at time molar at 2 min ([7]; rat, plasma, 2 minutes post-intravenous administration, 750 nmol/kg, read-out: Concentration in plasma): 7 µM

Compound: Ac-Nle-c[Asp-His-DNal(2′)-Arg-Trp-Lys]-NH2 [SHU9119]
- reversal of anorexia [8]: about 70 % of that observed with AGRP
- Peak Heart Rate Response (BPM) [9]: 16 ± 5/3 ± 14 BPM
- Peak MAP Response (Δ mm Hg) [9]: 16 ± 5/3 ± 14 mm Hg

Compound: CCCC[C@H](NC(C)=O)C(=O)N[C@H]1CC(=O)NCCCC[C@@H](C(=O)N2CCC[C@@H]2C(=O)N[C@@H](C(N)=O)C(C)C)NC(=O)[C@H](Cc2c[nH]c3ccccc23)NC(=O)[C@H](CCCNC(=N)N)NC(=O)[C@@H](Cc2ccc3ccccc3c2)NC(=O)[C@@H]2CCCN2C1=O [TCMCB02, Ac-Nle-c[Asp-Pro-dNal(2′)-Arg-Trp-Lys]-dPro-dVal-NH2] (Ac-[Nle]DP[d2Nal]RWK[dP][dV]-NH2; lactam 2-7)
- Emax [5]: 101%
- IC50 [5]: < 10 µM
- Hill Coefficient ([5]; dose-response fit, MC3R): 1.03
- Top (%) ([5]; dose-response fit, MC3R): 120.45%
- Emax [6]: 120%
- IC50 [6]: < 10 µM
- Hill Coefficient ([6]; dose-response fit, MC4R): 0.69
- Top (%) ([6]; dose-response fit, MC4R): 127.47%
- body weight gain overnight ([1]; 2 mg/kg, IP): ~5%
- food intake, 12-hours overnight ([1]; 2 mg/kg, IP, baseline = previous 4-day average): 65 % of baseline
- anti-cachectic activity after ICV administration [1]: equivalent to TCMCB01
- oral activity / gastrointestinal transport ([1]; gavage (intra-gastric)): did not have oral activity; also recorded: had no oral activity
- peripheral (IP) anti-cachexia activity / blood-brain barrier transport [1]: has peripheral activity, significantly reversing LPS-induced cachexia; also recorded: produced anti-cachexia following peripheral administration
- anti-cachectic activity relative to the parent compound ([1]; rat, in vivo): 10 fold
- behavior (lethargy) [2]: restored “normal” behavior to rats
